{"source": "paper doi:10.1101/2024.09.25.615046", "about": "“Identification of SLC45A4 as a pain gene encoding a neuronal polyamine transporter” (bioRxiv, 2024)", "key": {"SLC45A4 (HsSLC45A4) [1]": {"biological_target": "T1, SLC45A4 (HsSLC45A4) (Homo sapiens, UniProt Q5BKX6)", "T1 sequence (Q5BKX6 1-768)": "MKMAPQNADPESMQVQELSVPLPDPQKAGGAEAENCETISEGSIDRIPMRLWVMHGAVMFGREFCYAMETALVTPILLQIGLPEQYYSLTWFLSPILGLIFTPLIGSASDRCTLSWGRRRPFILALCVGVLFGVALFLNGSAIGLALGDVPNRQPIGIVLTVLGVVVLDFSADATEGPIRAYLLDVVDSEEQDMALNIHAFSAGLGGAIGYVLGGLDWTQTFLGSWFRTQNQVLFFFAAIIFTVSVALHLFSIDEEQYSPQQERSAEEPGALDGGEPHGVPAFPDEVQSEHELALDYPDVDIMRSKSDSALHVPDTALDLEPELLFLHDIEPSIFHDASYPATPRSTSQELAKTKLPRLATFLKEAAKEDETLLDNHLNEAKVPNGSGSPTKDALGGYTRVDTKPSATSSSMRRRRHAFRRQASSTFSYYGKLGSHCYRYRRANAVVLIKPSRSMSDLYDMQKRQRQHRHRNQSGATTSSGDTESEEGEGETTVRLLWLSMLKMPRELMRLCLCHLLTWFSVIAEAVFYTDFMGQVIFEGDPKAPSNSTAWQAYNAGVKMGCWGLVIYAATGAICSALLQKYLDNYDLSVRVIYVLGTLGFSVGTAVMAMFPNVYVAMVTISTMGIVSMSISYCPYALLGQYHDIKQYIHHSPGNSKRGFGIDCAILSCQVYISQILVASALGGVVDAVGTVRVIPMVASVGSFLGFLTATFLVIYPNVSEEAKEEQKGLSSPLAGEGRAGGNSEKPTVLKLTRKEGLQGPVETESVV", "experiment": "competition of […]-spermidine uptake, Neuro-2A cells", "format": "cell-based", "set-up": "full-length; uptake: C-terminal FLAG tag, pLexM, overexpressed in mouse Neuro-2A cells", "details": "1 uM 14C-spermidine, pH 7.5, 37 °C; unreliable unit: printed mM is probably µM (lost symbol font)"}, "SLC45A4 (HsSLC45A4) [2]": {"biological_target": "T1, SLC45A4 (HsSLC45A4)", "experiment": "nanoDSF thermal shift, purified protein", "format": "binding", "set-up": "full-length; uptake: C-terminal FLAG tag, pLexM, overexpressed in mouse Neuro-2A cells; nanoDSF: purified in DDM:CHS (eGFP-His tag removed by TEV)", "details": "2.5-50 mM metabolite, DDM:CHS, 150 mM NaCl, 20 mM Tris or MES pH 7.5"}}}
{"smiles": "NCCCCCN", "note": "[Cad]", "values": [{"measurement": "IC50", "setting": "SLC45A4 (HsSLC45A4) [1]", "value": 67, "unit": "mM"}]}
{"smiles": "NCCCCNCCCN", "note": "[Spd]", "values": [{"measurement": "thermal stability", "setting": "SLC45A4 (HsSLC45A4) [2]", "value": "polyamines Spm and Spd eliciting the largest response"}]}
{"smiles": "NCCCCN", "note": "[Put]", "values": [{"measurement": "IC50", "setting": "SLC45A4 (HsSLC45A4) [1]", "value": 74, "unit": "mM"}]}
{"smiles": "NCCCNCCCCNCCCN", "note": "[Spm]", "values": [{"measurement": "thermal stability", "setting": "SLC45A4 (HsSLC45A4) [2]", "value": "polyamines Spm and Spd eliciting the largest response"}]}
